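Compound exposure: 48 hours, 5 concentrations, 96-well plates. Here, GI50 denotes the concentration required for 50% inhibition of growth. The concentration for full growth arrest is given as TGI.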
Tests used:
Experiment in all cases: NCI-60 cell line screen, 48 h
A498 renal = test system: A498 renal
HCT-116 colon = test system: HCT-116 colon
HL-60(TB) leukemia = test system: HL-60(TB) leukemia
OVCAR-4 ovarian = test system: OVCAR-4 ovarian
SK-MEL-28 melanoma = test system: SK-MEL-28 melanoma
SNB-19 CNS = test system: SNB-19 CNS
SNB-75 CNS = test system: SNB-75 CNS
SR leukemia = test system: SR leukemia
UO-31 renal = test system: UO-31 renal
NCI-H226 lung = test system: NCI-H226 lung

Question: With `COC1=C(OC)C(=O)C(/C=C(\C)C(=O)O)=C(C)C1=O` as the compound, how does the GI50 (A498 renal) read?
Answer: Its GI50 is greater than 100 µM.

Question: What about the TGI (A498 renal) of the same compound?
Answer: Its TGI is greater than 100 µM.

Question: What about the GI50 (HCT-116 colon) of the same compound?
Answer: The GI50 was greater than 100 µM.

Question: What about the TGI (HCT-116 colon) of the same compound?
Answer: Its TGI is greater than 100 µM.

Question: And the GI50 (HL-60(TB) leukemia)?
Answer: The GI50 was greater than 100 µM.

Question: And the TGI (HL-60(TB) leukemia)?
Answer: Its TGI is greater than 100 µM.

Question: And the GI50 (OVCAR-4 ovarian)?
Answer: The GI50 was greater than 100 µM.

Question: What about the TGI (OVCAR-4 ovarian) of the same compound?
Answer: The TGI was greater than 100 µM.

Question: What about the GI50 (SK-MEL-28 melanoma) of the same compound?
Answer: The GI50 was greater than 100 µM.

Question: What about the TGI (SK-MEL-28 melanoma) of the same compound?
Answer: Its TGI is greater than 100 µM.

Question: And the GI50 (SNB-19 CNS)?
Answer: The GI50 was greater than 100 µM.

Question: And the TGI (SNB-19 CNS)?
Answer: The TGI was greater than 100 µM.

Question: And the GI50 (SNB-75 CNS)?
Answer: Its GI50 is 49.1 µM.

Question: What about the TGI (SNB-75 CNS) of the same compound?
Answer: Its TGI is greater than 100 µM.

Question: What about the GI50 (SR leukemia) of the same compound?
Answer: Its GI50 is greater than 100 µM.

Question: What about the TGI (SR leukemia) of the same compound?
Answer: The TGI was greater than 100 µM.

Question: What about the GI50 (UO-31 renal) of the same compound?
Answer: Its GI50 is greater than 100 µM.

Question: What about the TGI (UO-31 renal) of the same compound?
Answer: The TGI was greater than 100 µM.

Question: What does the source list for `COc1cc(/C=C/C(=O)C(=Cc2ccc(F)c(F)c2)C(=O)/C=C/c2ccc(O)c(OC)c2)ccc1O`?
Answer: GI50 (A498 renal): 2 µM; TGI (A498 renal): 6.95 µM; GI50 (HCT-116 colon): 1.79 µM; TGI (HCT-116 colon): 4.01 µM; GI50 (HL-60(TB) leukemia): 2.67 µM; TGI (HL-60(TB) leukemia): 6.85 µM; GI50 (NCI-H226 lung): 3.39 µM; TGI (NCI-H226 lung): 12.1 µM; GI50 (OVCAR-4 ovarian): 2.96 µM; TGI (OVCAR-4 ovarian): 10.7 µM; GI50 (SK-MEL-28 melanoma): 1.87 µM; TGI (SK-MEL-28 melanoma): 3.8 µM; GI50 (SNB-19 CNS): 3.54 µM; TGI (SNB-19 CNS): 15.9 µM; GI50 (SNB-75 CNS): 1.91 µM; TGI (SNB-75 CNS): 5.97 µM; GI50 (SR leukemia): 2.83 µM; TGI (SR leukemia): 9.2 µM; GI50 (UO-31 renal): 3.04 µM; TGI (UO-31 renal): 16.8 µM

Question: For `Cc1c2ccccc2c(C)c2c3c(ccc12)C(=O)C=CC3=O`, which TGI (A498 renal) is on record?
Answer: The TGI was greater than 100 µM.

Question: And the TGI (HCT-116 colon)?
Answer: The TGI was 49.7 µM.

Question: What about the TGI (HL-60(TB) leukemia) of the same compound?
Answer: Its TGI is 5.3 µM.

Question: And the TGI (NCI-H226 lung)?
Answer: Its TGI is greater than 100 µM.

Question: What about the TGI (OVCAR-4 ovarian) of the same compound?
Answer: Its TGI is 39.4 µM.

Question: And the TGI (SK-MEL-28 melanoma)?
Answer: Its TGI is greater than 57.1 µM.

Question: And the TGI (SNB-19 CNS)?
Answer: Its TGI is greater than 100 µM.

Question: What about the TGI (SNB-75 CNS) of the same compound?
Answer: Its TGI is greater than 100 µM.

Question: What about the TGI (SR leukemia) of the same compound?
Answer: The TGI was 25.2 µM.

Question: What about the TGI (UO-31 renal) of the same compound?
Answer: The TGI was 41.7 µM.

Question: `CC1C2Cc3ccc(O)cc3C1(C)CCN2C` (stereo not given) was tested. Which TGI (A498 renal) did it give?
Answer: The TGI was greater than 100 µM.

Question: What about the TGI (HCT-116 colon) of the same compound?
Answer: Its TGI is greater than 100 µM.

Question: What about the TGI (HL-60(TB) leukemia) of the same compound?
Answer: The TGI was greater than 100 µM.

Question: What about the TGI (NCI-H226 lung) of the same compound?
Answer: Its TGI is greater than 100 µM.

Question: What about the TGI (OVCAR-4 ovarian) of the same compound?
Answer: Its TGI is greater than 100 µM.

Question: What about the TGI (SK-MEL-28 melanoma) of the same compound?
Answer: The TGI was greater than 100 µM.

Question: What about the TGI (SNB-19 CNS) of the same compound?
Answer: Its TGI is greater than 100 µM.

Question: And the TGI (SNB-75 CNS)?
Answer: The TGI was greater than 100 µM.

Question: And the TGI (SR leukemia)?
Answer: The TGI was greater than 100 µM.

Question: What about the TGI (UO-31 renal) of the same compound?
Answer: The TGI was greater than 100 µM.

Question: For `CC(C)(O)[C@@H]1CCC(C)([C@H]2[C@@H](O)CC3(C)C4CC(OC5OC(CO)C(O)C(O)C5O)C5C(C)(C)[C@@H](OC6OCC(O)C(O)C6O)CC[C@@]56C[C@@]46CC[C@]23C)O1` (stereo not given in full), which TGI (HCT-116 colon) is on record?
Answer: The TGI was greater than 100 µM.

Question: And the TGI (HL-60(TB) leukemia)?
Answer: The TGI was greater than 100 µM.

Question: And the TGI (NCI-H226 lung)?
Answer: The TGI was greater than 100 µM.

Question: What about the TGI (OVCAR-4 ovarian) of the same compound?
Answer: The TGI was greater than 100 µM.

Question: What about the TGI (SK-MEL-28 melanoma) of the same compound?
Answer: Its TGI is greater than 100 µM.

Question: And the TGI (SNB-19 CNS)?
Answer: Its TGI is greater than 100 µM.

Question: What about the TGI (SNB-75 CNS) of the same compound?
Answer: Its TGI is greater than 100 µM.

Question: And the TGI (SR leukemia)?
Answer: The TGI was greater than 100 µM.

Question: And the TGI (UO-31 renal)?
Answer: The TGI was greater than 100 µM.

Question: For `CCCOc1ccc(/C(Cl)=C(\C=O)c2ccc(OC)c(OC)c2)cc1OCCC`, which TGI (A498 renal) is on record?
Answer: Its TGI is 38.5 µM.

Question: And the TGI (HCT-116 colon)?
Answer: Its TGI is 10.8 µM.

Question: What about the TGI (HL-60(TB) leukemia) of the same compound?
Answer: The TGI was 20.9 µM.

Question: And the TGI (NCI-H226 lung)?
Answer: Its TGI is 32.4 µM.

Question: And the TGI (OVCAR-4 ovarian)?
Answer: Its TGI is greater than 100 µM.

Question: And the TGI (SK-MEL-28 melanoma)?
Answer: The TGI was 25.3 µM.

Question: What about the TGI (SNB-19 CNS) of the same compound?
Answer: The TGI was greater than 100 µM.

Question: What about the TGI (SNB-75 CNS) of the same compound?
Answer: The TGI was 75.3 µM.

Question: What about the TGI (SR leukemia) of the same compound?
Answer: The TGI was 12 µM.

Question: What about the TGI (UO-31 renal) of the same compound?
Answer: Its TGI is greater than 100 µM.

Question: What does the source list for `O=C(N[C@H](c1ccc(Cl)c(Cl)c1)C1CNC1)c1ccc2cnccc2c1`?
Answer: GI50 (A498 renal): 1.78 µM; TGI (A498 renal): 10.5 µM; GI50 (HCT-116 colon): 3.23 µM; TGI (HCT-116 colon): 13.2 µM; GI50 (HL-60(TB) leukemia): 2.83 µM; TGI (HL-60(TB) leukemia): 12.8 µM; GI50 (NCI-H226 lung): 4.3 µM; TGI (NCI-H226 lung): 19.7 µM; GI50 (OVCAR-4 ovarian): 5.68 µM; TGI (OVCAR-4 ovarian): 19.4 µM; GI50 (SK-MEL-28 melanoma): 5.5 µM; TGI (SK-MEL-28 melanoma): 18.6 µM; GI50 (SNB-19 CNS): 8.9 µM; TGI (SNB-19 CNS): 21.5 µM; GI50 (SNB-75 CNS): 0.405 µM; TGI (SNB-75 CNS): 3.68 µM; GI50 (SR leukemia): 2.11 µM; TGI (SR leukemia): 10.8 µM

Question: `COc1ccc2c(c1)C(=O)c1c-2n(CCCN=[N+]=[N-])c(=O)c2ccccc12` was tested. Which GI50 (A498 renal) did it give?
Answer: The GI50 was 21.1 µM.

Question: What about the TGI (A498 renal) of the same compound?
Answer: Its TGI is 69.2 µM.

Question: And the GI50 (HCT-116 colon)?
Answer: Its GI50 is 26.7 µM.

Question: And the TGI (HCT-116 colon)?
Answer: Its TGI is greater than 100 µM.

Question: What about the GI50 (HL-60(TB) leukemia) of the same compound?
Answer: The GI50 was 54.1 µM.

Question: What about the TGI (HL-60(TB) leukemia) of the same compound?
Answer: The TGI was greater than 100 µM.

Question: What about the GI50 (NCI-H226 lung) of the same compound?
Answer: Its GI50 is greater than 100 µM.

Question: And the TGI (NCI-H226 lung)?
Answer: Its TGI is greater than 100 µM.

Question: What about the GI50 (OVCAR-4 ovarian) of the same compound?
Answer: Its GI50 is 58.6 µM.

Question: And the TGI (OVCAR-4 ovarian)?
Answer: Its TGI is greater than 100 µM.

Question: What about the GI50 (SK-MEL-28 melanoma) of the same compound?
Answer: The GI50 was greater than 100 µM.

Question: And the TGI (SK-MEL-28 melanoma)?
Answer: Its TGI is greater than 100 µM.

Question: What about the GI50 (SNB-19 CNS) of the same compound?
Answer: The GI50 was 17.6 µM.

Question: What about the TGI (SNB-19 CNS) of the same compound?
Answer: Its TGI is greater than 100 µM.

Question: And the GI50 (SNB-75 CNS)?
Answer: The GI50 was 18.8 µM.

Question: And the TGI (SNB-75 CNS)?
Answer: Its TGI is 65.2 µM.

Question: And the GI50 (SR leukemia)?
Answer: Its GI50 is 5.7 µM.

Question: And the TGI (SR leukemia)?
Answer: Its TGI is greater than 100 µM.

Question: What about the GI50 (UO-31 renal) of the same compound?
Answer: Its GI50 is 43.4 µM.

Question: What about the TGI (UO-31 renal) of the same compound?
Answer: Its TGI is greater than 100 µM.
